# Test results as given in patent US20090036448A1, “PYRIMIDINE DERIVATIVES AND METHODS OF TREATMENT RELATED TO THE USE THEREOF” (TAISHO PHARMECUTICAL CO., LTD., priority 2004, published 2009).
# Biological target: MCH receptor (Homo sapiens, UniProt Q99705)
# Assay: Receptor binding assay with Radiolabelled MCH Ligand
# Parameters: expressed in transfected cells; host or cells: 293 cells (human kidney, ATCC), transient transfection; crude membranes
# Conditions: class by percent of control at 10^-7 M or IC50
# Procedure, shortened: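 Membranes from 293 cells transiently transfected with human MCH receptor competed test compounds against a radiolabelled MCH ligand in Tris-HCl pH 7.4 with MgCl2 and EDTA for 60–120 min at room temperature. Filtration and scintillation counting followed, with cold MCH defining nonspecific binding. IC50 came from logit-log plots of %B/B0, and Ki from the Cheng-Prusoff equation.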
# MCH receptor, sequence (Q99705 whole entry): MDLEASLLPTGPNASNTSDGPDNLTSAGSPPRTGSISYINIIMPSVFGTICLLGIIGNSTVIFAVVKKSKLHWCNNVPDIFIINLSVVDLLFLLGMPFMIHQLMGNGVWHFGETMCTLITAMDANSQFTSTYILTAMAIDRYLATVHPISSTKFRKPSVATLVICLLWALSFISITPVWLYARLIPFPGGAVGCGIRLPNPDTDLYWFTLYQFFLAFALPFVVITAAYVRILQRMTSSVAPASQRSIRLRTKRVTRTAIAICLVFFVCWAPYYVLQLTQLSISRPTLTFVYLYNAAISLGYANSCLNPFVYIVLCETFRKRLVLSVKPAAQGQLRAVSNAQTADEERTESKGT
row,Structure (SMILES),class
1,Cc1nc(N[C@H]2CC[C@@H](NC(=O)C(C)(C)Oc3ccc(Cl)cc3)CC2)cc(N(C)C)n1 [compound 268],3 (Class 3: The value of percent of control at 10^−7 M was more than 60% or the value of IC50 was more than 200 nM.)
2,Cc1nc(N[C@H]2CC[C@@H](NC(=O)/C=C/c3ccc(OC(F)(F)F)cc3)CC2)cc(N(C)C)n1 [compound 269],3 (Class 3: The value of percent of control at 10^−7 M was more than 60% or the value of IC50 was more than 200 nM.)
3,Cc1nc(N[C@H]2CC[C@@H](NC(=O)c3cc(C(C)(C)C)nn3Cc3ccc(Cl)cc3Cl)CC2)cc(N(C)C)n1 [compound 270],3 (Class 3: The value of percent of control at 10^−7 M was more than 60% or the value of IC50 was more than 200 nM.)
4,Cc1nc(N[C@H]2CC[C@@H](NC(=O)C3=Cc4cc(Cl)ccc4OC3)CC2)cc(N(C)C)n1 [compound 271],3 (Class 3: The value of percent of control at 10^−7 M was more than 60% or the value of IC50 was more than 200 nM.)
5,Cc1nc(N[C@H]2CC[C@@H](NC(=O)c3cnn(C)c3Cl)CC2)cc(N(C)C)n1 [compound 272],3 (Class 3: The value of percent of control at 10^−7 M was more than 60% or the value of IC50 was more than 200 nM.)
6,Cc1nc(N[C@H]2CC[C@@H](NC(=O)COc3cccc4c(C)cc(=O)oc34)CC2)cc(N(C)C)n1 [compound 273],3 (Class 3: The value of percent of control at 10^−7 M was more than 60% or the value of IC50 was more than 200 nM.)
7,Cc1nc(N[C@H]2CC[C@@H](NC(=O)CN3C(=O)c4ccccc4C3=O)CC2)cc(N(C)C)n1 [compound 274],3 (Class 3: The value of percent of control at 10^−7 M was more than 60% or the value of IC50 was more than 200 nM.)
8,CC(=O)c1ccc(OCC(=O)N[C@H]2CC[C@@H](Nc3cc(N(C)C)nc(C)n3)CC2)cc1 [compound 275],3 (Class 3: The value of percent of control at 10^−7 M was more than 60% or the value of IC50 was more than 200 nM.)
9,Cc1nc(N[C@H]2CC[C@@H](NC(=O)C3CCCC[C@@H]3NC(=O)c3ccccc3)CC2)cc(N(C)C)n1 (stereo partly drawn) [compound 276],3 (Class 3: The value of percent of control at 10^−7 M was more than 60% or the value of IC50 was more than 200 nM.)
10,Cc1nc(N[C@H]2CC[C@@H](NC(=O)CC3=CCCCC3)CC2)cc(N(C)C)n1 [compound 278],3 (Class 3: The value of percent of control at 10^−7 M was more than 60% or the value of IC50 was more than 200 nM.)
11,Cc1nc(N[C@H]2CC[C@@H](NC(=O)CC3CCCCC3)CC2)cc(N(C)C)n1 [compound 279],3 (Class 3: The value of percent of control at 10^−7 M was more than 60% or the value of IC50 was more than 200 nM.)
12,Cc1ccnc(SCC(=O)N[C@H]2CC[C@@H](Nc3cc(N(C)C)nc(C)n3)CC2)n1 [compound 280],3 (Class 3: The value of percent of control at 10^−7 M was more than 60% or the value of IC50 was more than 200 nM.)
13,Cc1nc(N[C@H]2CC[C@@H](NC(=O)c3cc(C)n(Cc4cccs4)c3C)CC2)cc(N(C)C)n1 [compound 283],3 (Class 3: The value of percent of control at 10^−7 M was more than 60% or the value of IC50 was more than 200 nM.)
14,"Cc1nc(N[C@H]2CC[C@@H](NC(=O)c3ccc(I)o3)CC2)cc(N(C)C)n1 [compound 285, N-(cis-4-{[6-(dimethylamino)-2-methylpyrimidin-4-yl]amino}cyclohexyl)-5-iodo-2-furamide]",3 (Class 3: The value of percent of control at 10^−7 M was more than 60% or the value of IC50 was more than 200 nM.)
15,Cc1nc(N[C@H]2CC[C@@H](NC(=O)Cc3ccccc3I)CC2)cc(N(C)C)n1 [compound 287],3 (Class 3: The value of percent of control at 10^−7 M was more than 60% or the value of IC50 was more than 200 nM.)
16,Cc1ccc(-c2cc(C(=O)N[C@H]3CC[C@@H](Nc4cc(N(C)C)nc(C)n4)CC3)cs2)cc1 [compound 288],3 (Class 3: The value of percent of control at 10^−7 M was more than 60% or the value of IC50 was more than 200 nM.)
17,Cc1nc(N[C@H]2CC[C@@H](NC(=O)Cc3nc(-c4ccccc4)sc3C)CC2)cc(N(C)C)n1 [compound 289],3 (Class 3: The value of percent of control at 10^−7 M was more than 60% or the value of IC50 was more than 200 nM.)
18,COc1ccc2c(CC(=O)N[C@H]3CC[C@@H](Nc4cc(N(C)C)nc(C)n4)CC3)cc(=O)oc2c1 [compound 291],3 (Class 3: The value of percent of control at 10^−7 M was more than 60% or the value of IC50 was more than 200 nM.)
19,Cc1nc(N[C@H]2CC[C@@H](NC(=O)CCC(=O)c3ccc(S(C)(=O)=O)cc3)CC2)cc(N(C)C)n1 [compound 292],3 (Class 3: The value of percent of control at 10^−7 M was more than 60% or the value of IC50 was more than 200 nM.)
20,COc1ccc2[nH]c(C(=O)N[C@H]3CC[C@@H](Nc4cc(N(C)C)nc(C)n4)CC3)cc2c1 [compound 293],3 (Class 3: The value of percent of control at 10^−7 M was more than 60% or the value of IC50 was more than 200 nM.)

row,Structure (SMILES),class
1,Cc1nc(N[C@H]2CC[C@@H](NC(=O)Cc3ccccc3C(=O)Nc3ccc(F)cc3F)CC2)cc(N(C)C)n1 [compound 294],3 (Class 3: The value of percent of control at 10^−7 M was more than 60% or the value of IC50 was more than 200 nM.)
2,COc1ccc(OC)c(NC(=O)Cc2ccccc2C(=O)N[C@H]2CC[C@@H](Nc3cc(N(C)C)nc(C)n3)CC2)c1 [compound 295],3 (Class 3: The value of percent of control at 10^−7 M was more than 60% or the value of IC50 was more than 200 nM.)
3,Cc1nc(N[C@H]2CC[C@@H](NC(=O)Cc3ccccc3C(=O)Nc3ccc(C(C)C)cc3)CC2)cc(N(C)C)n1 [compound 296],3 (Class 3: The value of percent of control at 10^−7 M was more than 60% or the value of IC50 was more than 200 nM.)
4,Cc1nc(N[C@H]2CC[C@@H](NC(=O)Cc3ccccc3C(=O)Nc3ccc(OC(F)(F)F)cc3)CC2)cc(N(C)C)n1 [compound 297],3 (Class 3: The value of percent of control at 10^−7 M was more than 60% or the value of IC50 was more than 200 nM.)
5,Cc1nc(N[C@H]2CC[C@@H](NC(=O)CCCc3ccc([N+](=O)[O-])cc3)CC2)cc(N(C)C)n1 [compound 298],3 (Class 3: The value of percent of control at 10^−7 M was more than 60% or the value of IC50 was more than 200 nM.)
6,Cc1nc(N[C@H]2CC[C@@H](NC(=O)Cc3ccc(Oc4ccccc4)cc3)CC2)cc(N(C)C)n1 [compound 300],3 (Class 3: The value of percent of control at 10^−7 M was more than 60% or the value of IC50 was more than 200 nM.)
7,Cc1nc(N[C@H]2CC[C@@H](NC(=O)CCCCCCCCCCc3ccccc3)CC2)cc(N(C)C)n1 [compound 301],3 (Class 3: The value of percent of control at 10^−7 M was more than 60% or the value of IC50 was more than 200 nM.)
8,Cc1nc(N[C@H]2CC[C@@H](NC(=O)CSc3ccncc3)CC2)cc(N(C)C)n1 [compound 302],3 (Class 3: The value of percent of control at 10^−7 M was more than 60% or the value of IC50 was more than 200 nM.)
9,Cc1nc(N[C@H]2CC[C@@H](NC(=O)CNc3ccccc3)CC2)cc(N(C)C)n1 [compound 303],3 (Class 3: The value of percent of control at 10^−7 M was more than 60% or the value of IC50 was more than 200 nM.)
10,Cc1nc(N[C@H]2CC[C@@H](NC(=O)c3ccccc3C(=O)c3ccc(F)cc3)CC2)cc(N(C)C)n1 [compound 304],3 (Class 3: The value of percent of control at 10^−7 M was more than 60% or the value of IC50 was more than 200 nM.)
11,Cc1nc(N[C@H]2CC[C@@H](NC(=O)c3ccccc3CCc3ccccc3)CC2)cc(N(C)C)n1 [compound 305],3 (Class 3: The value of percent of control at 10^−7 M was more than 60% or the value of IC50 was more than 200 nM.)
12,"CCSC(C(=O)N[C@H]1CC[C@@H](Nc2cc(N(C)C)nc(C)n2)CC1)(c1ccccc1)c1ccccc1 [compound 306, N-(cis-4-{[6-(dimethylamino)-2-methylpyrimidin-4-yl]amino}cyclohexyl)-2-(ethylthio)-2,2-diphenylacetamide]",1 (Class 1: The value of percent of control at 10^−7 M was less than 40% or the value of IC50 was less than 50 nM.)
13,Cc1nc(N[C@H]2CC[C@@H](NC(=O)c3ccccc3-c3ccc(C(F)(F)F)cc3)CC2)cc(N(C)C)n1 [compound 307],3 (Class 3: The value of percent of control at 10^−7 M was more than 60% or the value of IC50 was more than 200 nM.)
14,Cc1nc(N[C@H]2CC[C@@H](NC(=O)c3cccc4c3-c3ccc([N+](=O)[O-])cc3C4)CC2)cc(N(C)C)n1 [compound 308],3 (Class 3: The value of percent of control at 10^−7 M was more than 60% or the value of IC50 was more than 200 nM.)
15,Cc1nc(N[C@H]2CC[C@@H](NC(=O)[C@@H](C)c3cccc(C(=O)c4ccccc4)c3)CC2)cc(N(C)C)n1 [compound 309],3 (Class 3: The value of percent of control at 10^−7 M was more than 60% or the value of IC50 was more than 200 nM.)
16,Cc1nc(N[C@H]2CC[C@@H](NC(=O)Cc3ccc(OC(F)(F)F)cc3)CC2)cc(N(C)C)n1 [compound 313],3 (Class 3: The value of percent of control at 10^−7 M was more than 60% or the value of IC50 was more than 200 nM.)
17,Cc1nc(N[C@H]2CC[C@@H](NC(=O)Cc3ccc(SC(F)(F)F)cc3)CC2)cc(N(C)C)n1 [compound 315],3 (Class 3: The value of percent of control at 10^−7 M was more than 60% or the value of IC50 was more than 200 nM.)
18,Cc1nc(N[C@H]2CC[C@@H](NC(=O)CCCCc3cccs3)CC2)cc(N(C)C)n1 [compound 316],3 (Class 3: The value of percent of control at 10^−7 M was more than 60% or the value of IC50 was more than 200 nM.)
19,Cc1ccc(S(=O)(=O)NCC(=O)N[C@H]2CC[C@@H](Nc3cc(N(C)C)nc(C)n3)CC2)cc1 [compound 317],3 (Class 3: The value of percent of control at 10^−7 M was more than 60% or the value of IC50 was more than 200 nM.)
